In US11702404B2, “GLP-1R modulating compounds” (priority 2019, dated 2023):
Like-named read-outs stand apart in the source and are kept apart here.

What was measured:
[1] = Microsomal stability, human liver microsomes (predicted hepatic clearance); conditions: predicted from in vitro microsomal stability data
GLP-1R = GLP-1R (Homo sapiens, UniProt P43220); assay: GLP-1R activation: cAMP increase in CHO cells stably expressing GLP-1R; type: cell-based; conditions: read-out: EC50
[2] = cAMP increase, CHO cells stably expressing GLP-1R, 10 point dose response, 30 minutes incubation

GLP-1R, sequence (P43220 24-463): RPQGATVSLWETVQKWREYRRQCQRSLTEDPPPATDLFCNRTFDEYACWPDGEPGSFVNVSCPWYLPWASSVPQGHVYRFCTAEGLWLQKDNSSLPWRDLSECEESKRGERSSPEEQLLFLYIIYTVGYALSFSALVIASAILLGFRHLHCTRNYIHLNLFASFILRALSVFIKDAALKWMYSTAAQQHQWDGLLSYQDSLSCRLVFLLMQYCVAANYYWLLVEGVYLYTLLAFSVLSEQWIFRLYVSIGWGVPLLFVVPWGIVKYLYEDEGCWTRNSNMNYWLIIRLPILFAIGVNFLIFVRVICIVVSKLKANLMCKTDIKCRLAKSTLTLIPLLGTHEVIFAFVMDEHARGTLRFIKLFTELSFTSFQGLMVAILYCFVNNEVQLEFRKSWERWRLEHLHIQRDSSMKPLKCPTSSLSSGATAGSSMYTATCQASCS

Which “Predicted Hepatic Clearance (Pred. Cl.)” value [1] does the source give for `O=C(O)c1ccc2nc(Cc3cc(F)c(-c4cccc(OCc5cnc(Cl)cc5F)n4)cc3F)n(C[C@@H]3CCO3)c2c1` [Example 851] here?
The value was 2.5 mL/min/kg.

What about the EC50 (GLP-1R; [2]) of the same compound?
Its EC50 is 0.25 nM.

Which “Predicted Hepatic Clearance (Pred. Cl.)” value [1] does the source give for `COCCn1c(Cc2cc(F)c(-c3cccc(OCc4ccc(C#N)cc4F)n3)cc2F)nc2cc(OC)c(C(=O)O)cc21` [Example 836] here?
The value was 1.83 mL/min/kg.

What about the EC50 (GLP-1R; [2]) of the same compound?
The EC50 was 9.29 nM.

Which results are given for `N#Cc1ccc(COc2cccc(-c3cc(F)c(Cc4nc5ccc(C(=O)O)cc5n4C[C@@H]4CCO4)cc3F)n2)c(OC(F)F)n1` [Example 858, (S)-2-(4-(6-((6-cyano-2-(difluoromethoxy)pyridin-3-yl)methoxy)pyridin-2-yl)-2,5-difluorobenzyl)-1-(oxetan-2-ylmethyl)-1H-benzo[d]imidazole-6-carboxylic acid]?
Predicted Hepatic Clearance (Pred. Cl.) [1]: 8.83 mL/min/kg; EC50 (GLP-1R; [2]): 2.27 nM

Which results are given for `COCCn1c(Cc2ccc(-c3cccc(OCc4ccc(C#N)cc4F)n3)c3ccccc23)nc2ccc(C(=O)O)cc21` [Example 35, 2-((4-(6-((4-cyano-2-fluorobenzyl)oxy)pyridin-2-yl)naphthalen-1-yl)methyl)-1-(2-methoxyethyl)-1H-benzo[d]imidazole-carboxylic acid]?
Predicted Hepatic Clearance (Pred. Cl.) [1]: 5.17 mL/min/kg; EC50 (GLP-1R; [2]): 1000 nM

Which results are given for `O=C(O)c1ccc2nc(Cc3cc(F)c(-c4cccc(OCc5ccc(Cl)cc5)n4)cc3F)n(Cc3ncco3)c2c1` [Example 819]?
Predicted Hepatic Clearance (Pred. Cl.) [1]: 3.17 mL/min/kg; EC50 (GLP-1R; [2]): 0.86 nM

Which results are given for `N#Cc1ccc(COc2cccc(-c3ccc(Cc4nc5ccc(C(=O)O)cc5n4C[C@@H]4CCN4C4COC4)c(F)c3)n2)c(F)c1` [Example 395, (S)-2-(4-(6-((4-cyano-2-fluorobenzyl)oxy)pyridin-2-yl)-2-fluorobenzyl)-1-((1-(oxetan-3-yl)azetidin-2-yl)methyl)-1H-benzo[d]imidazole-6-carboxylic acid]?
Predicted Hepatic Clearance (Pred. Cl.) [1]: <1.83 mL/min/kg; EC50 (GLP-1R): 42.3 nM

Which “Predicted Hepatic Clearance (Pred. Cl.)” value [1] does the source give for `COc1cc(Cl)ccc1COc1nccc(-c2ccc(Cc3nc4ccc(C(=O)O)cc4n3CC3(CF)CC3)cc2F)n1` [Example 75, 2-(4-(2-((4-chloro-2-methoxybenzyl)oxy)pyrimidin-4-yl)-3-fluorobenzyl)-1-((1-(fluoromethyl)cyclopropyl)methyl)-1H-benzo[d]imidazole-6-carboxylic acid] here?
The value was 13.8 mL/min/kg.

What about the EC50 (GLP-1R; [2]) of the same compound?
Its EC50 is 0.6 nM.

For `O=C(O)c1ccc2nc(Cc3cc(F)c(-c4ccnc(OCc5ccc(C(F)(F)F)cc5F)n4)cc3F)n(C[C@@H]3CCO3)c2c1` [Example 785], which “Predicted Hepatic Clearance (Pred. Cl.)” value [1] is on record?
The value was 1.83 mL/min/kg.

What about the EC50 (GLP-1R; [2]) of the same compound?
Its EC50 is 0.05 nM.

Which “Predicted Hepatic Clearance (Pred. Cl.)” value [1] does the source give for `N#Cc1ccc(COc2cccc(-c3ccc(Cc4nc5ccc(C(=O)O)cc5n4Cc4cocn4)c(F)c3)n2)c(F)c1` [Example 407, 2-(4-(6-((4-cyano-2-fluorobenzyl)oxy)pyridin-2-yl)-2-fluorobenzyl)-1-(oxazol-4-ylmethyl)-1H-benzo[d]imidazole-6-carboxylic acid] here?
Its value is 3.75 mL/min/kg.

And the EC50 (GLP-1R; [2])?
Its EC50 is 4.69 nM.

With `COCCn1c(Cc2ccc(-c3cccc(OCc4ccc(C#N)cc4F)n3)cc2O)nc2ccc(C(=O)O)cc21` [Example 181, 2-(4-(6-((4-cyano-2-fluorobenzyl)oxy)pyridin-2-yl)-2-hydroxybenzyl)-1-(2-methoxyethyl)-1H-benzo[d]imidazole-6-carboxylic acid] as the compound, how does the “Predicted Hepatic Clearance (Pred. Cl.)” value [1] read?
The value was 2.83 mL/min/kg.

What about the EC50 (GLP-1R; [2]) of the same compound?
Its EC50 is 15.5 nM.

Which “Predicted Hepatic Clearance (Pred. Cl.)” value [1] does the source give for `NC(=O)c1ccc(COc2cccc(-c3cc(F)c(Cc4nc5ccc(C(=O)O)cc5n4C[C@@H]4CCO4)cc3F)n2)cn1` [Example 826] here?
The value was 3.67 mL/min/kg.

What about the EC50 (GLP-1R; [2]) of the same compound?
Its EC50 is 0.28 nM.

Which “Predicted Hepatic Clearance (Pred. Cl.)” value [1] does the source give for `N#Cc1ccc(COc2cccc(-c3ccc(Cc4nc5ccc(C(=O)O)cc5n4C[C@@H]4CCCO4)c(F)c3)n2)c(F)c1` [Example 194, (S)-2-(4-(6-((4-cyano-2-fluorobenzyl)oxy)pyridin-2-yl)-2-fluorobenzyl)-1-((tetrahydrofuran-2-yl)methyl)-1H-benzo[d]imidazole-carboxylic acid] here?
Its value is 4.67 mL/min/kg.

And the EC50 (GLP-1R; [2])?
Its EC50 is 0.86 nM.
